Columns and labels:
[1] = molecular target: T1, MetAP-2 in white blood cells (Rattus norvegicus, UniProt P38062); assay: MetAP-2 pharmacodynamic assay (ELISA of uninhibited MetAP-2 in white blood cell lysates of treated rats); format: in vivo; conditions: po, PG-PS arthritic rats, every other day, relative to the vehicle-treated group, read-out: MetAP-2 in white blood cells inhibited; for inhibition at 1 mg/kg: 1 mg/kg orally, pooled wbc after conclusion of study
T1 construct: white blood cells from animals of each study group were pooled and cell lysates were prepared; from tissue; host or cells: white blood cells of female Lewis rats (PG-PS arthritis model)
Procedure: After completion of the study, wbc from rats of different groups that had been treated with vehicle (p.o., qod), dex (1 mg/kg, p.o., qod) or MetAP-2 inhibitor (1, 5, or 10 mg/kg, p.o., qod) were pooled, lysed, and the amount of MetAP-2 inhibited in wbc lysates was determined by the MetAP-2 pharmacodynamic assay. All values are expressed as percentage of the amount of MetAP-2 inhibited compared with vehicle-treated rats. The amount of uninhibited MetAP-2 (=100%) in vehicle-treated rats in this assay corresponded to 41 ng MetAP-2 per mg wbc protein. The detection limit was 0.47 ng MetAP-2 per mg wbc protein. Columns: 10 rats per group, except for naive rats treated with vehicle (n=4).
(§1) Rat model of Peptidoglycan-Polysaccharide (PG-PS) induced arthritis. Female Lewis rats (109-130 g) were received from Charles River Laboratories. Food and water were available ad libitum. PG-PS (25 mg/kg) was injected intraperitoneally on day 1 and responding animals were randomized into treatment groups on day 14. Vehicle (11% HPCD in PBS), dexamethasone and a methionine aminopeptidase 2 inhibitor (1, 5, and 10 mg/kg) were administered orally, every other day. Paw swelling was monitored using a plethysmometer (Stoelting Co., Woodale, Ill.) according to instrument specifications. The volumes of the two hind paws were measured and averaged on day 1, 4, 6, 8, 10, 13, 15, 17, 20, 22, 23, 27, 29 and 31. Ten animals were assigned to each group except the vehicle group and animals which received no PG-PS, but 10 mg/kg of the methionine aminopeptidase 2 inhibitor (n=4). The methionine aminopeptidase 2 inhibitor comprising the structure structure (1-Carbamoyl-2-methyl-propyl)-carbamic acid-(3R, 4S, 5S, 6R )-5-methoxy-4-[(2R, 3R)-2-methyl-3-(3-methyl-but-2-enyl)-oxiranyl]-1-oxa-spiro[2.5]oct-6-yl ester was used in the present studies.
MetAP-2 pharmacodynamic assay. The MetAP-2 assay is an ELISA assay that measures the amount of uninhibited MetAP-2 in cells or tissues which has not been derivitized by prior treatment with a methionine aminopeptidase 2 inhibitor and/or a glucocorticoid. The assay was performed as described in, for example, Bernier, S. G., et al. (2004) Proc. Natl. Acad. Sci. USA 101: 10768-10773 and Bernier, S. G., et al. (2005) J. Cell. Biochem. 95:1191-1203, the entire contents of each of which are incorporated herein by reference. Briefly, white blood cells from animals of each study group were pooled and cell lysates were prepared as described in, for example, Bernier, S. G., et al. (2004) Proc. Natl. Acad. Sci. USA 101: 10768-10773 and Bernier, S. G., et al. (2005) J. Cell. Biochem. 95:1191-1203. […] After 1 hour, the plates were washed, and the immobilized biotinylated MetAP-2-inhibitor complex was then detected with an anti-MetAP-2 antibody, CM33 (0.5 μg/ml). […]

[2] = test system: Peptidoglycan-Polysaccharide (PG-PS) induced arthritis; assay: Rat model of PG-PS induced arthritis, paw swelling of the hind limbs; format: in vivo; conditions: 1, 5 and 10 mg/kg orally, every other day, day 15 to day 31; compared to vehicle-treated animals
Procedure: as §1

T1 sequence (P38062 whole entry): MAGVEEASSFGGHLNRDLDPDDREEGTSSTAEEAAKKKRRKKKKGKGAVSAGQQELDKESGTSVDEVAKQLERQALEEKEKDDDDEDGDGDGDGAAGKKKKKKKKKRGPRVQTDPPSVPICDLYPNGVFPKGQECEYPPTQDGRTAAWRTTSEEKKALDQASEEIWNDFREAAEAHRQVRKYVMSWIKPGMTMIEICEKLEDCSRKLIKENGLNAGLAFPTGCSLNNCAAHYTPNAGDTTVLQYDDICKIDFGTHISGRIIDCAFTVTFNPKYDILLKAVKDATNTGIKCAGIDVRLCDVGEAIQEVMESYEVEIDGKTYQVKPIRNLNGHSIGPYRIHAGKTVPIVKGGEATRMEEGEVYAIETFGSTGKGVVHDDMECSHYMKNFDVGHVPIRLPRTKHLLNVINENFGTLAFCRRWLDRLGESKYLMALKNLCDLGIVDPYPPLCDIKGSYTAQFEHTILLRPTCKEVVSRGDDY

| inhibition at 1 mg/kg [1] [%] | inhibition at 5 mg/kg ([1]; 5 mg/kg orally) [%] | inhibition at 10 mg/kg ([1]; 10 mg/kg orally) [%] | SMILES | joint swelling and inflammation, measured by paw swelling of the hind limbs [2] |
| --- | --- | --- | --- | --- |
| ≥ 90 | – | – | C[C@@H]1C[C@H]2[C@@H]3CCC4=CC(=O)C=C[C@]4(C)[C@@]3(F)[C@@H](O)C[C@]2(C)[C@@]1(O)C(=O)CO [dexamethasone, reference compound] | – |
| ≥ 60 | ≥ 95 | ≥ 95 | CO[C@@H]1[C@H](OC(=O)N[C@@H](C(N)=O)C(C)C)CC[C@]2(CO2)[C@H]1[C@@]1(C)O[C@@H]1CC=C(C)C [methionine aminopeptidase 2 inhibitor, (1-Carbamoyl-2-methyl-propyl)-carbamic acid-(3R, 4S, 5S, 6R )-5-methoxy-4-[(2R, 3R)-2-methyl-3-(3-methyl-but-2-enyl)-oxiranyl]-1-oxa-spiro[2.5]oct-6-yl ester] | significant amelioration of joint swelling and inflammation |

From patent publication US20070254303A1, “Methods for assessing the efficacy of treatment with a glucocorticoid” (Praecis Pharmaceuticals Incorporated, priority 2006, published 2007)
